Here are results for one compound from US20180282734A1, “METHODS AND COMPOSITIONS FOR THE TREATMENT OF HEAD AND NECK CANCER” (Children's Hospital Medical Center, priority 2015, published 2018).

Each structure is given as a SMILES string.

The target in one assay is T1, IRAK1 (Homo sapiens, UniProt P51617).
T1 construct: endogenous in cells; host or cells: UMSCC1 and UMSCC47
In words: Western blot for phospho-IRAK1 after IRAK-1/4 inhibitor treatment (time course). The assay is classed as cell-based. The settings on record: UMSCC1 and UMSCC47 cells. Here is the method:
Western blotting. Whole cell lysates were harvested using Laemmli buffer and a total of 20 μg of protein was analyzed as described previously. Membranes were probed with DEK (1:1000, BD Biosciences, San Jose, Calif., USA), IRAK1 (1:1000, Santa Cruz Biotechnology, Dallas, Tex., USA (sc-7883)), TRAF6 (1:1000, Santa Cruz (sc-7221)), phospho-IRAK1 (Thr209, 1:800, Assay Biotechnology Company (A1074), Sunnyvale, Calif., USA), phospho-p38 (1:500, Cell Signaling Technologies (4361)), p38 (1:1000, Cell Signaling Technologies (9212)), phospho-ERK1/2 (1:1000, Cell Signaling Technologies (4377)), ERK1/2 (1:1000, Cell Signaling Technologies (4695)), phospho-IKKa/r3 (1:500, Cell Signaling Technologies (2697)), IKKa (1:1000, Cell Signaling Technologies (2682)), phospho-hcBa (1:500, Cell Signaling Technologies (9246)), hcBa (1:1000, Cell Signaling Technologies (4812)), a-tubulin-HRP (1:10,000 Cell Signaling Technologies (9099)), actin (1:10,000 a gift from James Lessard), and GAPDH (1:1000, Cell Signaling Technologies (5174)).
IRAK1 inhibitor. […]
Cells and media were collected 72 hours later and prepared and analyzed as above. For the time-course experiment, cells were plated and inhibitor was added the following day, with protein collected at 24, 48, and 72 hours and analyzed by western blot for IRAK1 inhibition.

For a further assay, the system named is UMSCC1 cells. Briefly: Flow cytometry for cleaved caspase-3 after IRAK1 inhibitor. The settings on record: 72 hours, vs DMSO. The assay is classed as cell-based, human. Here is the method: Flow cytometry for Cleaved Caspase-3. Lentivirally transduced cells were plated at equal densities and collected 48 hours later. Cells were fixed and prepped following the BD FITC Active Caspase-3 Apoptosis kit protocol (BD Biosciences). […] Analysis was performed on a BD FacsCanto and data analyzed on FlowJo software (Tree Star, Ashland, Oreg., USA). Experiments were performed 3 times with standard error of the mean (SEM) represented. IRAK1 inhibitor. UMSCC1 cells were plated at equal densities and IRAK1 inhibitor (IRAK-1/4 inhibitor, 15409, Sigma-Aldrich, St. Louis, Mo., USA) added the same day for caspase-3 flow cytometry experiments. DMSO was added in equal volume for a control. Cells and media were collected 72 hours later and prepared and analyzed as above. For the time-course experiment, cells were plated and inhibitor was added the following day, with protein collected at 24, 48, and 72 hours and analyzed by western blot for IRAK1 inhibition.
For orientation: A flow cytometer gives signals particle by particle.

In the next assay the test system is melanoma cells. The settings on record: in vitro and in vivo; cited from earlier work.
The next assay has as its system MDS. The settings on record: cited from earlier work.
For the next assay, the system named is IRAK1 and IRAK4. The settings on record: cited from earlier work.

T1 sequence (P51617 whole entry): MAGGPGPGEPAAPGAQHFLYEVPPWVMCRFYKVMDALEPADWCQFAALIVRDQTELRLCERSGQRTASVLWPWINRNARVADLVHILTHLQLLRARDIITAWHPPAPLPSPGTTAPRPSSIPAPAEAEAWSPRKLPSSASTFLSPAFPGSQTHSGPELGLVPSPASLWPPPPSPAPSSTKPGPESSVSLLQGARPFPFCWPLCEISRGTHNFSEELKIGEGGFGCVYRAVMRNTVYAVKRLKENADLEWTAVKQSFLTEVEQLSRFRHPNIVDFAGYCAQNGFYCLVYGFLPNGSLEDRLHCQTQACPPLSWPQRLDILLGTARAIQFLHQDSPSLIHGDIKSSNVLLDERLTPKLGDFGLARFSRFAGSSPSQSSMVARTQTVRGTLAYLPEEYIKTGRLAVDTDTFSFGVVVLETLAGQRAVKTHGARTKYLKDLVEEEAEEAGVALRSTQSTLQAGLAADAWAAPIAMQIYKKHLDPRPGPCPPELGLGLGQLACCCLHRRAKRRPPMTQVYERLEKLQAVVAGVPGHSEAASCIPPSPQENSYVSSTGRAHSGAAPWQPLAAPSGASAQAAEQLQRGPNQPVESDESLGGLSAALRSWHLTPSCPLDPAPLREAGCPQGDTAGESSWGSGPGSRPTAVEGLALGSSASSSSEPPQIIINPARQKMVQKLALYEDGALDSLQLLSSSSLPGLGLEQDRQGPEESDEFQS

Consider `O=C(Nc1nc2ccccc2n1CCN1CCOCC1)c1cccc([N+](=O)[O-])c1` [IRAK-1/4 inhibitor, N-(2-morpholinylethyl)-2-(3-nitrobenzoylamido)-benzimidazole], for which the “IRAK1 activation (phosphorylation of IRAK1, western blot)” value at IRAK1 (1 μM or 10 μM final concentrations, indicated time-points, vs DMSO) is “reduces IRAK1 activation”. Moreover, the “activation of IRAK1 (phosphorylation of IRAK1, western blot)” value on IRAK1 (10 μM, 24-72 hours post-treatment) is on record as “attenuated activation of IRAK1”. Moreover, the “apoptosis (cleaved caspase-3)” value in the assay with UMSCC1 cells is “Significantly increased apoptosis”; in the assay on UMSCC1 cells (listed as IRAK1-inhibitor), “increases apoptosis”. The “apoptosis in melanoma cells” value in the assay with melanoma cells is listed as “increase apoptosis”. The “signaling and cell viability in MDS” value in the assay with MDS is “inhibit signaling and cell viability”. The kinase selectivity result with IRAK1 and IRAK4 is “selective for IRAK1 and IRAK4 and shows little specificity for other kinases”.
